Measured values: US11787817B2, “Albofungin and its derivatives specifically recognize HIV-1 LTR-III G-quadruplex” (The Hong Kong University of Science and Technology, priority 2021, dated 2023)
“Also recorded” adds a separate entry of the source.

Experiments:
[1] = Solubility in the solvent system of the NMR titration; format: physicochemical; conditions: in solution / solvent system at the test concentration
Method: (§1) To verify whether or not the compounds interact with G4 DNA, we performed NMR titration experiments by running one-dimensional (1D) ^1H NMR spectra at 25° C. All compounds were dissolved in isotope-labeled d6-DMSO (from Sigma-Aldrich) at about 50 mM concentration, working as stock solutions. To avoid chemical shift changes of G4 DNA resulted from d6-DMSO addition, 10 μL d6-DMSO was added into 500 μL of 0.1 mM G4 DNA solution in the NMR buffer (20 mM potassium phosphate buffer and 70 mM KCl, pH 7.0, 10% D2O) and then a 1D ^1H-NMR spectrum was recorded as a reference. During NMR titration experiments, each compound was added into G4 DNA solution, the maximal volume of 10 μL of each compound in d6-DMSO solution was thought as a final data point.

HIV-1 U3 RNA G4 = assay: 1D 1H-NMR titration of HIV-1 U3 RNA G4; format: binding; conditions: ratio 1:0.5, 1:1, 1:3 and 1:5
Method: (§2) The single DNA nucleotides were purchased from Integrated DNA Technologies (IDT). The DNA sample at 100 μM (single strands) was then re-annealed by heating to 95° C. for 15 min, followed by slow cooling to room temperature overnight in an annealing buffer of 70 mM KCl and 20 mM potassium phosphate (pH 7.0). The final NMR samples contained 0.1 mM […] in 20 mM potassium phosphate buffer (pH 7.0) and 70 mM KCl.
as §1, with “point. […]” for “point.”

HIV-1 LTR III G4 = assay: 1D 1H-NMR titration of HIV-1 LTR III G4 with compounds; format: binding; conditions: for binding affinity to LTR III G4 compared with albofungin / interaction / binding with LTR III G4: NMR titration; for interaction / binding with LTR III G4: result in words
Method: as §2, §1

LTR-III G4 = assay: CD spectroscopy of LTR-III G4 with compound; design: species or system HIV-1; conditions: increasing compound concentration ratio, 25° C., 220-320 nm
Method: Circular dichroism (CD) spectra were recorded on Chirascan CD spectrometer at 25° C. from 220 nm to 320 nm under liquid mode; a 1 mm path-length quartz cuvette was used in the test.
Except for NMR titration and X-ray diffraction; Circular Dichroic (CD) spectroscopy is another frequently used method for G4 studies because it is very sensitive to observing slight changes in DNA conformation. (28) Due to its sensitivity, easy manipulation of studied samples, and relatively cheap, CD spectroscopy is regarded as a crucial complementary method in G4 studies; meanwhile, LTR-III G4's structure has only been resolved using NMR elucidation in K^+ solution, a typical hybrid conformation; and different G4 conformation has distinct CD spectra. So CD test was conducted to see if 477-albo will change the conformation of LTR-III G4.

[2] = test system: DNA and RNA G4s of LTR-III; conditions: literature; cited from earlier work
human telomeric G4s = conditions: literature (32); cited from earlier work
Epstein-Barr viruses = conditions: literature (15); cited from earlier work
HIV-1 LTR II G4 = assay: 1D 1H-NMR titration of HIV-1 LTR II G4; format: binding; conditions: ratio 1:0, 1:3 and 1:6; even at 1:6
Method: as §2, §1
(§3) Since not only LTR III can form noncanonical G4, LTR II and LTR IV can also form mutually exclusive G4 structures (24). […]

[3] = test system: RRM1,2 domain of hnRNP A2; assay: 1H-15N HSQC titration of RRM1,2 domain of hnRNP A2 with compound; format: binding, human; conditions: titrated at 1:10
Method: The coding sequence of the RRM domain of hnRNP A2 was inserted into the expression vector pET-28a(+) (Novagen). The protein was expressed in Escherichia coli BL21(DE3) at 37° C. for 5 h. Cell lysates were subject to affinity purification with the nickel-nitrilotriacetic acid resin (Qiagen) followed by the cleavage of the hexahistidine tag with the P3C enzyme. The resulting protein was further purified on a Superdex 75 column (GE Healthcare). For the NMR studies, the samples uniformly labeled with ^15N isotopes were expressed and purified as described above, except that the cells were grown in an M9 medium containing [^15N] ammonium chloride (Cambridge Isotopes) and D-glucose.
The titration experiments were performed by recording a series of 2D ^15N-HSQC spectra on uniformly ^15N-labeled RRM domain (˜0.1 mM) in the presence of different amounts of DNA ranging from 0 to 0.5 mM at 25° C. The protein sample and the stock solutions of DNA were all prepared in 20 mM potassium phosphate buffer and 70 mM KCl, pH 7.0, 10% D2O.
All compounds were dissolved in isotope-labeled d6-DMSO (from Sigma-Aldrich) at about 50 mM concentration, working as stock solutions. […]

[4] = test system: LTR III G4 / hnRNP A2 interaction; assay: 1D 1H-NMR titration of LTR III G4/albofungin complex with RRM1,2 domain of hnRNP A2; format: binding; conditions: G4:albofungin 1:3; G4:albofungin:hnRNP A2 1:3:2
Method: as §1
LTR G4 region is under control of two nuclear proteins: nucleolin, which upon binding increases LTR G4 stability and thus silences transcription (26); the human ribonucleoprotein (hnRNP) A2/B1, which can unfold the LTR G4 efficiently and thus enhances HIV-1 transcription (27). To sum up, G4 binding proteins perform like a switch in the determination of G4's conformation to control viral transcription modulation. Therefore, the RRM domain of human ribonucleoprotein (hnRNP A2) was expressed and purified, and the NMR titration of LTR III G4 with the RRM domain of hnRNP A2 was performed. […]

HIV-1 LTR IV G4 = assay: 1D 1H-NMR titration of HIV-1 LTR IV G4; format: binding; conditions: ratio 1:0, 1:3 and 1:6; even at 1:6
Method: as §2, §1, §3

[5] = test system: human telomeric variant htel21_T18 G4; assay: 1D 1H-NMR titration of human telomeric htel21_T18 G-quadruplex; format: binding; conditions: concentration ratio 1:5
Method: as §2, §1
The LTR sequence and other G-rich DNA or RNA strands can form polymorphic G4s. For example, a chair-type conformation is adopted by a human telomeric variant, htel21_T18 (d[(GGGTTA)2GGGTTTGGG]) (SEQ ID NO: 1) (25). […]

Chain of RRM1,2 domain of hnRNP A2 (P22626 21-191): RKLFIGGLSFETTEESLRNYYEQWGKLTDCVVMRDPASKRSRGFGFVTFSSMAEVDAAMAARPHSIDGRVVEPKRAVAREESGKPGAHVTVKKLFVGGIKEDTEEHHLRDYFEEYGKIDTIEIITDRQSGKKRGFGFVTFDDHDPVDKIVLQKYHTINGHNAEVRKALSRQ

| Molecule | binding affinity to LTR III G4 compared with albofungin (HIV-1 LTR III G4) | interaction / binding with LTR III G4 (HIV-1 LTR III G4) | other results |
| --- | --- | --- | --- |
| COc1c2c(c(O)c3c(=O)c4c(oc13)[C@H](O)CC[C@@H]4O)-c1c(cc3cc(C)[nH]c(=O)c3c1O)CC2 [477-albo] | much weaker than albofungin | specific bind with LTR-III DNA G4; also recorded: bind to LTR III G4 | solubility [1]: better solubility; binding to U3 RNA G4 (imino region of 1D 1H-NMR spectra) (HIV-1 U3 RNA G4): not U3 RNA G4; also recorded: did not change; new imino shifts indicating conformation change of LTR III G4 (HIV-1 LTR III G4; concentration ratio increased to 1:3, between 13 to 14 ppm and 9.5 to 10.5 ppm): several strange shifts; trend of chemical shift changes of LTR III G4 imino region on titration (HIV-1 LTR III G4; ratio 1:0 to 1:8): clear trend of chemical shifts changes; conformation change of LTR-III G4 in CD spectra (LTR-III G4): noticeable conformation changes from a typical hybrid form into parallel form |
| COc1c2c(c(O)c3c(=O)c4c(oc13)[C@H](O)CC[C@@H]4O)-c1c(cc3cc(C)n(N)c(=O)c3c1O)CC2 [492-albo] | much weaker than albofungin | bind to LTR III G4 |  |
| CO[C@@H]1CC[C@H](O)c2c1oc1c3c4c(c(O)c1c2=O)-c1c(cc2cc(C)[nH]c(=O)c2c1O)C[C@H]4OCO3 [505-albo] | much weaker than albofungin | bind to LTR III G4 |  |
| Cc1cc2cc3c(c(O)c2c(=O)n1N)-c1c2c(c4oc5c(c(=O)c4c1O)[C@@H](O)[C@@H](O)CC5)OCO[C@@H]2C3 [506-1-albo] | much weaker than albofungin | bind to LTR III G4 |  |
| Cc1cc2cc3c(c(O)c2c(=O)n1N)-c1c2c(c4oc5c(c(=O)c4c1O)[C@@H](O)CC[C@H]5O)OCO[C@@H]2C3 [506-2-albo] | much weaker than albofungin | bind to LTR III G4 |  |
| CO[C@@H]1CC[C@H](O)c2c1oc1c3c4c(c(O)c1c2=O)-c1c(cc2cc(C)n(C)c(=O)c2c1O)C[C@H]4OCO3 [519-albo] | much weaker than albofungin | bind to LTR III G4 |  |
| CO[C@@H]1CC[C@H](O)c2c1oc1c3c4c(c(O)c1c2=O)-c1c(cc2cc(C)n(NC(C)=O)c(=O)c2c1O)C[C@H]4OCO3 [562-albo] | much weaker than albofungin | bind to LTR III G4 |  |
| CN(C)c1ccc(Nc2c3ccc(NC(=O)CCN4CCCC4)cc3nc3cc(NC(=O)CCN4CCCC4)ccc23)cc1 [BRACO-19] |  |  | binding to DNA and RNA G4s of LTR-III [2]: binds both DNA and RNA G4s of LTR-III; activity against human telomeric G4s (human telomeric G4s): active against; activity against Epstein-Barr viruses (Epstein-Barr viruses): active against |
| CO[C@@H]1CC[C@H](O)c2c1oc1c3c4c(c(O)c1c2=O)-c1c(cc2c(Cl)c(C)n(N)c(=O)c2c1O)C[C@H]4OCO3 [chloroalbofungin] |  | poor binding affinity |  |
| albofungin |  | potent interaction | chemical shift changes of LTR II G4 1D 1H NMR spectra (HIV-1 LTR II G4): no significant chemical shift changes; solubility [1]: poor solubility; binding to the RRM domain of hnRNP A2 [3]: did not bind; chemical shift changes in the imino region of the 1D 1H-NMR spectrum of LTR III G4 (HIV-1 LTR III G4; G4:compound concentration ratio 1:0.5, 25° C.): significant chemical shift changes; changes in imino region of LTR III G4/albofungin complex on adding RRM1,2 domain of hnRNP A2 [4]: no changes in the profile of the imino region; chemical shift changes of LTR IV G4 1D 1H NMR spectra (HIV-1 LTR IV G4): no significant chemical shift changes; chemical shift changes of htel21_T18 1D 1H NMR spectra [5]: no chemical shift changes |
